Assay results from ChEMBL document CHEMBL4002608, “Discovery of new MurA inhibitors using induced-fit simulation and docking” (Bioorg Med Chem Lett, 2017).
Active and inactive are the calls of the source. No cut-off for these calls is given here.

Key:
[1] = Inhibition of Haemophilus influenzae MurA
[2] = Inhibition of Escherichia coli MurA
[3] = Inhibition of methicillin-resistant Staphylococcus aureus MurA
[4] = test system: Escherichia coli DH5[alpha]; test: Inhibition of Escherichia coli DH5alpha C-terminal His6-tagged MurA expressed in Escherichia coli BL21(DE3) assessed as residual activity at 100 uM using UNAG as substrate after 15 mins in presence of PEP by malachite green dye based spectrophotometric method relative to control
[5] = Inhibition of Escherichia coli DH5alpha C-terminal His6-tagged MurA expressed in Escherichia coli BL21(DE3) using UNAG as substrate after 15 mins in presence of PEP by malachite green dye based spectrophotometric method; parameters: species or system Escherichia coli DH5[alpha]
[6] = test system: Escherichia coli DH5[alpha]; test: (§1) Irreversible inhibition of Escherichia coli DH5alpha C-terminal His6-tagged MurA expressed in Escherichia coli BL21(DE3) at 0.8 uM preincubated for 30 mins followed by compound dilution and subsequent substrate UNAG addition measured after 20 mins in presence of PEP by malachite green dye based spectrophotometric method
[7] = Inhibition of Staphylococcus aureus MurA
Staphylococcus aureus = test: Antibacterial activity against Staphylococcus aureus ATCC 29213 after 20 to 24 hrs by broth microdilution assay; assay type: functional
Escherichia coli = test: Antibacterial activity against Escherichia coli ATCC 25922 after 20 to 24 hrs by broth microdilution assay; assay type: functional
[8] = test system: Escherichia coli DH5[alpha]; test: as §1, with “Reversible” for “Irreversible”, “5” for “0.8”
[9] = Inhibition of Enterobacter cloacae MurA

## O=C1C(Oc2ccc(O)cc2)=C(Cl)C(=O)c2ncccc21
[1]
  IC50: 2800 nM

## C=C(C(=O)OC)[C@@H]1[C@@H](CCCCCCCC)OC(=O)[C@@H]1O
[2]
  IC50: 2800 nM
[3]
  IC50: 6700 nM

## Cc1cc(C)nc(-c2cccc3c2O[C@@H](CNC(=O)c2ccc(N4CCN(C)CC4)cc2)C3)n1
[4]
  Activity: 98%

## CCc1cc(C(=O)N2CCN[C@H](C(=O)O)C2)c(NC(=O)c2ccccc2)s1
[4]
  Activity: 63%

## O=C(O)C[C@H]1c2ccccc2CCN1C(=O)c1cc(=O)[nH]c2ccccc12
[4]
  Activity: 85%

## C[C@@H]1O[C@@H]1P(=O)(O)O [FOSFOMYCIN]
[4]
  Activity: < 50%
[5]
  IC50: 41000 nM
[6]
  inhibition: Active

## Cc1c(C(=O)N2CCC[C@@H](C(N)=O)C2)sc2ncnc(NCCCc3ccccc3)c12
[4]
  Activity: 100%

## c1ccc(CN2CC[C@@H](Nc3nncc(-c4cc5ccccc5o4)n3)C2)cc1
[4]
  Activity: 82%

## O=C(CCN1CCCO1)N1CCc2[nH]nc(-c3cccc4ccccc34)c2C1
[4]
  Activity: 86%

## C[C@@H](Oc1ccc2ccccc2c1)C(=O)NCc1nc(-c2ncccn2)no1
[4]
  Activity: 98%

## O=C(Nc1cc(CCc2ccccc2)ccn1)[C@H]1CCCN(c2ncccn2)C1
[4]
  Activity: 99%

## O=C(O)c1nn(CCCc2ccccc2)c2c1CN(C(=O)c1ccc[nH]1)CC2
[4]
  Activity: 91%

## Cc1ncc2c(c1CNC(=O)c1cc3ccccc3[nH]1)CCN(C(=O)C1=CCCC1)C2
[4]
  Activity: 66%

## CO[C@H](C(=O)N1CCc2c(cnc(C)c2CNC(=O)c2cccs2)C1)c1ccccc1
[4]
  Activity: 92%

## O=C(O)c1c([C@@H](C(=O)O)N2CCN(c3ccccn3)CC2)c2ccccc2n1Cc1ccccc1
[4]
  Activity: 87%

## CS(=O)(=O)N1CCN([C@H](C(=O)O)c2c(C(=O)O)n(Cc3ccccc3)c3ccccc23)CC1
[4]
  Activity: 99%

## CCOc1ccc(N2C(=O)[C@@H]3C4c5ccccc5C(C(=O)O)(c5ccccc54)[C@@H]3C2=O)cc1
[4]
  Activity: 100%

## O=C(O)COc1ccccc1[C@@H]1C2=C(CCCC2=O)Nc2nc(SCc3ccccn3)nn21
[4]
  Activity: 91%

## O=c1oc2c(Cl)cc(O)c(Cl)c2s1
[2]
  IC50: 280 nM
[7]
  IC50: 1090 nM

## O=[N+]([O-])/C(Br)=C/c1ccc(Br)o1
[2]
  IC50: 2800 nM
[7]
  IC50: 3900 nM

## O=C(c1cnn(Cc2ccccc2)c1)N1CC=C(c2c[nH]c3ncccc23)CC1
[4]
  Activity: < 50%
[5]
  IC50: 109000 nM
Staphylococcus aureus
  Activity: inactive
Escherichia coli
  Activity: inactive

## C=C1C(=O)OCC1O (racemic) [(+/-)-TULIPALINE B]
[2]
  IC50: 200 nM

## Cc1n[nH]c(S/C(=C/c2ccc(-c3cccc(C(=O)O)c3)o2)C(=O)O)n1
[4]
  Activity: < 50%
[5]
  IC50: 1000 nM
[8]
  inhibition: Active
Staphylococcus aureus
  Activity: inactive
Escherichia coli
  Activity: inactive

## O=C(O)[C@H]1CC2(CCN(C(=O)c3cc4ccccc4[nH]3)CC2)CN1C(=O)C1CC1
[4]
  Activity: 100%

## O=C(O)c1ccc(-c2nccn2Cc2nc3ccccc3c(=O)[nH]2)cc1
[4]
  Activity: < 50%
[5]
  IC50: 82000 nM
Staphylococcus aureus
  Activity: inactive
Escherichia coli
  Activity: inactive

## O=C(O)c1nn(CCCc2ccccc2)c2c1CN(C(=O)c1cnc[nH]1)CC2
[4]
  Activity: 96%

## O=C1[C@@H]2C3c4ccccc4C(C(=O)O)(c4ccccc43)[C@@H]2C(=O)N1c1cccc([N+](=O)[O-])c1
[4]
  Activity: 98%

## Cc1ccccc1-n1cc(CN[C@H]2CCCN(c3ncccn3)C2)cn1
[4]
  Activity: 99%

## O=C(O)[C@H]1C[C@@H](C(=O)N2CCCC2)CN(C(=O)c2[nH]nc3c2CCCC3)C1
[4]
  Activity: 100%

## CS(=O)(=O)N1CCc2cc(C(=O)N3CCC(c4cc5ccccc5[nH]4)CC3)ccc21
[4]
  Activity: 85%

## CN1CCN([C@H](C(=O)O)c2c(C(=O)O)n(Cc3ccccc3)c3ccccc23)CC1
[4]
  Activity: 94%

## Cc1ccccc1-c1cccc(CN[C@H]2CCCN(c3ncccn3)C2)c1
[4]
  Activity: 86%

## O=C(C1=C(O)C(=O)N(c2nnc(SCc3ccccc3)s2)[C@@H]1c1ccc(O)cc1)c1ccco1
[4]
  Activity: 62%

## CCOc1ccc(N2C(=O)[C@@H]3C4c5ccccc5C(C(=O)O)(c5ccccc54)[C@@H]3C2=O)c([N+](=O)[O-])c1
[4]
  Activity: 78%

## CC1=C(O)C(=O)[C@H]2O[C@@H]2C1=O
[9]
  IC50: 14000 nM

## CC(=O)N1CCN([C@H](C(=O)O)c2c(C(=O)O)n(Cc3ccccc3)c3ccccc23)CC1
[4]
  Activity: 96%
